Test results reported in the supplement of paper PMC4858399.

Experiments:
Conditions in all cases: exposure time 48 h
[1] = tested on: Caenorhabditis elegans N2; assay: lowest effective concentration for larval growth inhibition (size below effect threshold); higher = less potent
Procedure, shortened: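 Chemical exposure ran for 48 h at 20°C: 50 C. elegans N2 L1 larvae per 96-well in K-medium with killed bacteria, 1% DMSO and 0.5, 1, 5, 10, 50, 100 or 200 µM chemical. Extinction of each worm, read as size on the Biosort, was log-transformed and averaged by well. The lowest effective concentration is the first dose whose plate-adjusted mean size is below a fixed value and remains so at all higher doses; the value is 5.665.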

[2] = tested on: Caenorhabditis elegans N2; assay: mean nematode size ln(EXT) after 48 h, plate-adjusted (DMSO control set to 6) (ln(EXT), control-adjusted); higher = larger nematodes / less growth inhibition
Procedure, shortened: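 Chemical at 0.5–200 µM was tested on synchronised C. elegans N2 L1 larvae grown for 48 h at 20°C in K-medium with killed OP50 and 1% DMSO. Per-worm Biosort extinction, cleared of debris by a growth model, was natural-logged and averaged per well to give mean size. Plates were normalised by subtracting the vehicle control mean and adding 6.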

[3] = tested on: Caenorhabditis elegans N2; assay: AC50 for larval growth inhibition (Hill fit); higher = less potent
Procedure, shortened: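 C. elegans N2 L1 larvae, synchronised and plated at 50 per well in 96-well plates, were exposed for 48 h at 20°C to 0.5–200 µM chemical in K-medium with killed OP50 and 1% DMSO. Log-transformed extinction from a COPAS Biosort served as worm size, averaged per well. Wells containing at least 10 worms entered the fit. A constrained Hill fit by weighted genetic-algorithm regression yielded the AC50, censored when out of range.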

Structure (SMILES) | lowest effective concentration [1] [µM] | mean nematode size ln(EXT) (ln) ([2]; 0.5 µM) | mean nematode size ln(EXT) (ln) ([2]; 1 µM) | mean nematode size ln(EXT) (ln) ([2]; 5 µM) | mean nematode size ln(EXT) (ln) ([2]; 10 µM) | mean nematode size ln(EXT) (ln) ([2]; 50 µM) | mean nematode size ln(EXT) (ln) ([2]; 100 µM) | mean nematode size ln(EXT) (ln) ([2]; 200 µM) | AC50 for larval growth inhibition [3] [µM]
COC(=O)NC(=S)Nc1ccccc1NC(=S)NC(=O)OC [Thiophanate-methyl] | 200 | 5.88 | 5.84 | 5.76 | 5.87 | 5.83 | 5.73 | 5.41 | > 200
O=C(Nc1ccccc1)c1ccccc1I [Benodanil] | 5 | 5.99 | 5.98 | 5.62 | 5.66 | 4.16 | 4.19 | 3.37 | 39.3
CN(C)c1nc(=O)n(C2CCCCC2)c(=O)n1C [Hexazinone] | 200 | 5.85 | 5.89 | 5.89 | 5.92 | 6 | 5.92 | 5.62 | 109
COC(=O)c1c(Cl)c(Cl)c(C(=O)OC)c(Cl)c1Cl [Chlorthal-dimethyl] | 100 | 5.89 | 5.95 | 5.78 | 5.83 | 5.75 | 5.56 | 5.42 | > 200
CNCc1cc(F)ccc1Oc1ccc(Cl)c(Cl)c1 | 10 | 5.86 | 5.78 | 5.86 | 5.24 | 4.33 | 4.11 | 3.59 | 39.1
c1ccc(C(O[C@@H]2CCCN(CCc3ccc4c(c3)OCO4)C2)c2ccccc2)cc1 [Zamifenacin] | 10 | 5.83 | 5.81 | 5.73 | 5.55 | 4.99 | 4.17 | 3.31 | 70.4
Cc1ccc(C(C)(C)C)c(O)c1 [2-tert-Butyl-5-methylphenol] | 200 | 6.07 | 6.05 | 6.02 | 6.06 | 5.95 | 5.91 | 4.77 | > 200
O=C(Nc1ccc2[nH]ccc2c1)c1cc2cc(F)ccc2n1Cc1cccc(F)c1 | 1 | 5.77 | 5.57 | 5.5 | 3.83 | 3.84 | 3.62 | 3.51 | 6.54
CCN(CC)C(=O)c1cc(S(=O)(=O)Cc2ccccc2)c(N2CCC(c3ccccc3)CC2)cc1N(CC)CCN(C)C | 10 | 5.74 | 5.7 | 5.67 | 5.57 | 4.82 | 4.3 | 3.47 | 72.6
O=C(O)CN(CC(=O)O)CC(=O)O [Nitrilotriacetic acid] | 200 | 5.78 | 5.83 | 5.87 | 5.88 | 5.91 | 5.88 | 5.21 | > 200
O=Cc1ccccc1C=O [1,2-Benzenedicarboxaldehyde] | 50 | 5.83 | 5.92 | 5.82 | 5.93 | 5.24 | 4.04 | 3.73 | 62
CN(C[C@@H](CC[N+]12CCC(C3CCCCC3)(CC1)CC2)c1ccc(Cl)c(Cl)c1)C(=O)c1cc(C(F)(F)F)cc(C(F)(F)F)c1 | 50 | 5.87 | 6.12 | 5.97 | 5.76 | 3.96 | 3.97 | 3.56 | 22.8
CC(C)COC(=O)CCCCC(=O)OCC(C)C [Diisobutyl adipate] | 100 | 5.93 | 5.89 | 5.73 | 5.85 | 5.74 | 4.35 | 5.38 | 53.6
CCCCCCCCCCCCCCO [1-Tetradecanol] | 10 | 5.94 | 5.92 | 5.87 | 5.61 | 3.67 | 3.57 | 3.42 | 19.7
CC[C@H](C)C(=O)O[C@H]1C[C@@H](C)C=C2C=C[C@H](C)[C@H](CC[C@@H]3C[C@@H](O)CC(=O)O3)[C@H]21 [Lovastatin] | 50 | 5.85 | 5.83 | 5.8 | 5.83 | 5.65 | 5.23 | 5.06 | > 200
CCCCCCCCOC(=O)CCCCCCCCC(=O)OCCCCCCCC [Sebacic acid di-n-octyl ester] | 200 | 5.75 | 5.77 | 5.82 | 6.22 | 5.69 | 5.67 | 5.58 | 39.2
Brc1ccc(Oc2ccccc2)cc1 [p-Bromodiphenyl-ether] | 5 | 5.7 | 5.75 | 5.55 | 5.54 | 4.74 | 4.03 | 3.65 | 52.5
CC(C)(C)c1ccc(CSc2cnn(C(C)(C)C)c(=O)c2Cl)cc1 [Pyridaben] | ≤ 0.5 | 4.73 | 4.44 | 4.31 | 4.22 | 4.14 | 3.92 | 3.87 | < 0.5
CCOP(=S)(OCC)SCSP(=S)(OCC)OCC [Ethion] | 1 | 5.78 | 5.62 | 5.28 | 5.04 | 4.93 | 4.85 | 4.06 | 99.2

Structure (SMILES) | lowest effective concentration [1] [µM] | mean nematode size ln(EXT) (ln) ([2]; 0.5 µM) | mean nematode size ln(EXT) (ln) ([2]; 1 µM) | mean nematode size ln(EXT) (ln) ([2]; 5 µM) | mean nematode size ln(EXT) (ln) ([2]; 10 µM) | mean nematode size ln(EXT) (ln) ([2]; 50 µM) | mean nematode size ln(EXT) (ln) ([2]; 100 µM) | mean nematode size ln(EXT) (ln) ([2]; 200 µM) | AC50 for larval growth inhibition [3] [µM]
CCCCCCCCN(C)C [N,N-Dimethyloctylamine] | 200 | 5.85 | 5.83 | 5.81 | 5.79 | 5.85 | 5.88 | 5.65 | > 200
CNCc1ccc(NC(=O)c2c[nH]c3c2C(=O)CCC3)cc1 | 200 | 5.9 | 6.14 | 6.21 | 6.19 | 6.15 | 6.09 | 5.65 | > 200
N#CC(Br)(Br)C(N)=O [2,2-Dibromo-3-nitrilopropionamide] | 200 | 6.09 | 6.03 | 6.04 | 6.07 | 5.96 | 5.94 | 5.57 | > 200
Oc1cc(Cl)ccc1Oc1ccc(Cl)cc1Cl [Triclosan] | 10 | 5.89 | 5.86 | 5.85 | 5.64 | 4.79 | 4.27 | 4 | 49.9
CCSC(=O)N(CC(C)C)CC(C)C [Butylate] | 200 | 5.97 | 5.89 | 6.11 | 5.97 | 6.05 | 6.06 | 5.65 | 196
Oc1c(Cl)cc(Cl)cc1Cl [2,4,6-Trichlorophenol] | 200 | 5.87 | 5.85 | 5.9 | 5.83 | 5.82 | 5.87 | 5.66 | > 200
COC(=O)c1ccc(C(=O)OC)cc1 [Dimethyl terephthalate] | 200 | 5.9 | 5.9 | 5.87 | 5.83 | 5.81 | 5.83 | 5.09 | > 200
CN(C)c1ccc(N=NS(=O)(=O)O)cc1 [Fenaminosulf] | 50 | 5.95 | 5.88 | 5.79 | 5.86 | 4.72 | 3.9 | 3.5 | 54.8
CCOc1cc(C(C)(C)C)ccc1C1COC(c2c(F)cccc2F)=N1 (stereo not drawn) [Etoxazole] | 1 | 5.74 | 5.16 | 4.48 | 4.32 | 4.37 | 3.91 | 3.44 | 2.3
CCOC(=O)CC(SP(=S)(OC)OC)C(=O)OCC (stereo not drawn) [Malathion] | 100 | 5.93 | 6.01 | 5.79 | 5.98 | 5.8 | 5.59 | 5.28 | > 200
CCCOc1nn(C(=O)NS(=O)(=O)c2ccccc2C(=O)OC)c(=O)n1C [Propoxycarbazone-sodium] | 200 | 5.79 | 5.97 | 6.22 | 6.16 | 5.99 | 5.96 | 5.38 | > 200
COC(=O)C(C)Oc1ccc(Oc2ccc(Cl)cc2Cl)cc1 (stereo not drawn) [Diclofop-methyl] | 50 | 6.06 | 6.74 | 6 | 5.92 | 5.56 | 5.39 | 4.62 | > 200
CN=C=S [Methyl isothiocyanate] | 200 | 6.14 | 6.37 | 6.06 | 6.02 | 5.96 | 6.02 | 5.06 | > 200
c1ccc2[nH]c(-c3cscn3)nc2c1 [Thiabendazole] | 200 | 6.04 | 6.23 | 6.02 | 5.98 | 5.78 | 5.93 | 4.91 | > 200
Cc1c(COC(=O)[C@@H]2[C@H](/C=C(\Cl)C(F)(F)F)C2(C)C)cccc1-c1ccccc1 (racemic) [Bifenthrin] | 200 | 5.92 | 5.85 | 5.84 | 5.96 | 5.9 | 5.78 | 5.37 | > 200
Cl[C@H]1[C@H](Cl)[C@@H](Cl)[C@@H](Cl)[C@H](Cl)[C@H]1Cl [Lindane] | 50 | 5.77 | 5.98 | 5.79 | 5.94 | 5.42 | 5.2 | 4.35 | 175
ClC(Cl)(Cl)c1ccccc1 [Benzotrichloride] | 200 | 5.84 | 5.87 | 5.73 | 5.82 | 5.78 | 5.75 | 4.93 | > 200
CC(C)Oc1cccc(NC(=O)c2ccccc2C(F)(F)F)c1 [Flutolanil] | 200 | 5.94 | 5.98 | 6.08 | 6.01 | 5.5 | 6.3 | 5.43 | 192
